Measured values as given in patent US6350765B1, “Fungicidal mixtures based on amide compounds and azoles” (priority 2000, dated 2002).
Like-named read-outs stand apart in the source and are kept apart here.

Tested on: Botrytis cinerea
Assay: Activity against Botrytis cinerea on bell peppers (fruit disks, protective spray)
Format: in vivo
Settings: in Capsicum, 96 h, read-out: Efficacy in % of the untreated control
Experimental: The active ingredients, separately or together, are formulated as a 10% emulsion in a mixture of 63% by weight of cyclohexanone and 27% by weight of emulsifier, and diluted with water to the desired concentration.
Evaluation is carried out by determining the infected leaf areas in percent. These percentages are converted into efficacies. The efficacy (W) is calculated as follows using Abbot's formula: […]
α corresponds to the fungal infection of the treated plants in % and β corresponds to the fungal infection of the untreated (control) plants in % An efficacy of 0 means that the infection level of the treated plants corresponds to that of the untreated control plants; an efficacy of 100 means that the treated plants were not infected.
The expected efficacies of the mixtures of the active ingredients were determined using Colby's formula [R. S. Colby, Weeds 15, 20-22 (1967)] and compared with the observed efficacies.
Colby's formula: E=x+y−x·y/100
E expected efficacy, expressed in % of the untreated control, when using the mixture of the active ingredients A and B at the concentrations a and b x efficacy, expressed in % of the untreated control, when using active ingredient A at the concentration a y efficacy, expressed in % of the untreated control, when using active ingredient B at the concentration b Activity against Botrytis cinerea on bell peppers
Disks of green bell peppers were sprayed to runoff point with an aqueous preparation of active ingredient which had been prepared is from a stock solution comprising 10% of active ingredient, 63% of cyclohexanone and 27% of emulsifier. 2 hours after the spray coating had dried on, the fruit disks were inoculated with a spore suspension of Botrytis cinerea containing 1.7×10^6 spores per ml of a 2% strength Biomalz solution. The inoculated fruit disks were subsequently incubated in humid chambers at 18° C. for 4 days. The Botrytis infection on the diseased fruit disks was then evaluated visually.
The visually determined values for the percentage of diseased leaf areas were converted into efficacies as percentage of the untreated control. An efficacy of 0 means the same disease level as in the untreated control, an efficacy of 100 means 0% disease. The expected efficacies for active ingredient combinations were determined using Colby's formula (Colby, S. R. “Calculating synergistic and antagonistic responses of herbicide Combinations”, Weeds, 15, p. 20-22, 1967) and compared with the observed efficacies.

[1] = single active ingredient, 16 ppm in the spray liquor, green bell pepper disks, 4 days at 18° C.
[2] = single active ingredient, 31 ppm in the spray liquor, green bell pepper disks, 4 days at 18° C.

| Structure (SMILES) | pest or weed control at 16 ppm [1] [%] | pest or weed control at 31 ppm [2] [%] | pest or weed control at 16 ppm [%] | pest or weed control at 31 ppm [%] |
| --- | --- | --- | --- | --- |
| CC(C1CC1)C(O)(Cn1cncn1)c1ccc(Cl)cc1 (stereo not shown) [Compound II.2, 2-(4-chlorophenyl)-3-cyclopropyl-1-(1H-1,2,4-triazol-1-yl)-butan-2-ol] | 0 | 10 | – | – |
| Fc1ccc(C2(Cn3cncn3)OC2c2ccccc2Cl)cc1 (stereo not shown) [Compound II.5, (Z)-2-(1H-1,2,4-triazol-1-ylmethyl)-2-(4-fluorophenyl)-3-(2-chlorophenyl)-oxirane] | 0 | 0 | – | – |
| C[Si](Cn1cncn1)(c1ccc(F)cc1)c1ccc(F)cc1 [Compound II.8, bis(4-fluorophenyl)(methyl)(1H-1,2,4-triazol-1-ylmethyl)-silane] | 0 | 0 | – | – |
| O=C(Nc1ccccc1-c1ccc(F)cc1)c1cccnc1Cl [Compound I.1] | – | – | 10 | 60 |
| CCCN(CCOc1c(Cl)cc(Cl)cc1Cl)C(=O)n1ccnc1 [Compound II.11, N-propyl-N-[2-(2,4,^6-trichlorophenoxy)ethyl]imidazol-1-carboxamide] | – | – | 0 | 0 |
| CCCC1COC(Cn2cncn2)(c2ccc(Cl)cc2Cl)O1 (racemic) [Compound II.12, (±)-1-[2-(2,4-dichlorophenyl)-4-propyl-1,3-dioxolan-2-ylmethyl]-1H-1,2,4-triazole] | 0 | – | – | – |
| O=C(Nc1ccccc1-c1ccc(Cl)cc1)c1cccnc1Cl [Compound I.2] | – | – | 80 | – |
| CCCCC(C#N)(Cn1cncn1)c1ccc(Cl)cc1 (stereo not shown) [Compound II.17, 2-p-chlorophenyl-2-(1H-1,2,4-triazol-1-ylmethyl)hexanenitrile] | 0 | – | – | – |
